From US8048879B2, “Substituted 4,5,6,7-tetrahydro-isoxazolo[4,5-c]pyridine compounds and use thereof for producing medicaments” (Gruenenthal GmbH, priority 2005, dated 2011)

test system: batrachotoxin (BTX) binding site of the sodium channel; experiment: Affinity for the batrachotoxin (BTX) binding site of the sodium channel, [3H]-batrachotoxinin A20 α-benzoate, rat cerebrocortex synaptosomes; conditions: test concentration not given

SMILES | BTX inhibition (rat) % inhibition [%]
CC(NC(=O)N1CCc2onc(C(=O)NCc3ccccc3)c2C1)c1ccccc1 (centres unmarked) [Example 150, N^3-benzyl-N^5-(1-phenylethyl)-6,7-dihydroisoxazolo[4,5-c]pyridine-3,5(4H)-dicarboxamide] | 49
COc1ccc(NC(=O)N2CCc3onc(C(=O)NCc4ccccc4)c3C2)cc1 [Example 151, N^3-benzyl-N^5-(4-methoxyphenyl)-6,7-dihydroisoxazolo[4,5-c]pyridine-3,5(4H)-dicarboxamide] | 36
Cc1ccc(NC(=O)c2noc3c2CN(S(=O)(=O)c2ccc(C)cc2)CC3)cc1 [Example 152, N-p-tolyl-5-tosyl-4,5,6,7-tetrahydroisoxazolo[4,5-c]pyridine-3-carboxamide] | 29
COCCNC(=O)c1noc2c1CN(C(=O)c1ccc(C(F)(F)F)c(F)c1)CC2 [Example 153, 5-(3-fluoro-4-(trifluoromethyl)benzoyl)-N-(2-methoxyethyl)-4,5,6,7-tetrahydroisoxazolo[4,5-c]pyridine-3-carboxamide] | 28
COc1ccc(NC(=O)N2CCc3onc(C(=O)NCc4ccc(S(N)(=O)=O)cc4)c3C2)cc1 [Example 154, N^5-(4-methoxyphenyl)-N^3-(4-sulfamoylbenzyl)-6,7-dihydroisoxazolo[4,5-c]pyridine-3,5(4H)-dicarboxamide] | 4
O=C(NCCN1CCCC1)c1noc2c1CN(C(=O)COc1cccc(Cl)c1)CC2 [Example 155, 5-(2-(3-chlorophenoxy)acetyl)-N-(2-(pyrrolidin-1-yl)ethyl)-4,5,6,7-tetrahydroisoxazolo[4,5-c]pyridine-3-carboxamide] | 64
O=C(Nc1ccccc1)c1noc2c1CN(C(=O)c1ccccc1F)CC2 [Example 156, 5-(2-fluorobenzoyl)-N-phenyl-4,5,6,7-tetrahydroisoxazolo[4,5-c]pyridine-3-carboxamide] | 26
Cc1ccc(S(=O)(=O)N2CCc3onc(C(=O)NCc4ccc(S(N)(=O)=O)cc4)c3C2)cc1 [Example 157, N-(4-sulfamoylbenzyl)-5-tosyl-4,5,6,7-tetrahydroisoxazolo[4,5-c]pyridine-3-carboxamide] | 17
